Bridge positions count the residues as written; N and C are the ends. Square brackets hold non-standard residues; d marks the D form. Peptide text beside a SMILES is read from it. * marks the point of attachment. ξ: configuration not given here. Phe(4-NO2) = N[C@@H](Cc1ccc([N+](=O)[O-])cc1)C(=O)O; dPhe(4-NHCONH2) = NC(=O)Nc1ccc(C[C@@H](N)C(=O)O)cc1; Phe(4-NHCONH2) = NC(=O)Nc1ccc(C[C@H](N)C(=O)O)cc1; Trp(5-F) = N[C@@H](Cc1c[nH]c2ccc(F)cc12)C(=O)O; Phe(4-Cl) = N[C@@H](Cc1ccc(Cl)cc1)C(=O)O; ξDihydroorotoyl = O=C1CC(C(=O)*)NC(=O)N1; Phe(4-NH2) = Nc1ccc(C[C@H](N)C(=O)O)cc1; 2Nal = N[C@@H](Cc1ccc2ccccc2c1)C(=O)O
How the values were obtained:
Assay in all cases: Receptor autoradiography, displacement of 125I-[Leu8,D-Trp22,Tyr25]-SRIF-28 from membrane pellet sections
Assay type in all cases: binding
[1] = molecular target: T1, hSSTR1 (Homo sapiens, UniProt P30872); details: Table 3; mean ± SEM when N ≧ 3; read-out: sst1 binding affinity (IC50)
T1 construct: expressed in transfected cells; host or cells: CHO-K1 or CCL39 cells
T1 sequence (P30872 whole entry): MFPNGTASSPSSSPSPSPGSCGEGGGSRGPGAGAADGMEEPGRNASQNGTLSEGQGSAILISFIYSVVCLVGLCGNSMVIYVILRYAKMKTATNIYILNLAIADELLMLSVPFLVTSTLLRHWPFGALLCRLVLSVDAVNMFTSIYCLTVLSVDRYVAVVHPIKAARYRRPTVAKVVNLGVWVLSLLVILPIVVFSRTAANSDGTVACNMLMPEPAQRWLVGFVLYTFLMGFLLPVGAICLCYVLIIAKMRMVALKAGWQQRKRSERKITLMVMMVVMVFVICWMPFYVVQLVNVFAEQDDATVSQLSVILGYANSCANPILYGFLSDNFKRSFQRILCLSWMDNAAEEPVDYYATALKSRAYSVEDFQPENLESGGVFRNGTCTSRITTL
Experimental: (§1) Generally, recombinant cells expressing the receptor are washed and homogenized to prepare a crude protein homogenate in a suitable buffer. In a typical assay, an amount of protein from the cell homogenate is placed into a small volume of an appropriate assay buffer at an appropriate pH. Candidate substances, such as potential SRIF agonists and antagonists, are added to the admixture in convenient concentrations, and the interaction between the candidate substance and the receptor polypeptide is monitored.
(§2) In vitro Bioassay: The effects of the various somatostatin analogs were tested in vitro for their ability to bind to isolated cloned receptors expressed on CHO-K1 cells and CCL39 cells. The molecular cloning of the genes encoding multiple somatostatin receptor subtypes permitted the individual expression of these receptors in mammalian cells and the characterization of their respective pharmacological profiles.
(§3) CHO-K1 cells were grown in Ham's F-12 medium, and CCL39 cells were grown in Dulbecco's modified Eagle's medium/Ham's F-12(1:1) mix, supplemented with 10% fetal bovine serum, 100 U/ml penicillin and 100 μg/ml streptomycin, in humidified air containing 5% CO2 at 37° C. Cells were washed twice with and scraped into ice-cold 0.05 M Tris-HCl (pH 7.4), collected by centrifugation, and homogenized using a rotor/stator/system in the same buffer. After centrifugation at 120 g for 5 min at 4° C., the supernatant was collected and centrifuged again at 48,000 g for 30 min at 4° C. The resulting pellet was resuspended in ice-cold Tris buffer, transferred into a microfuge tube, and centrifuged at 20,000 g for 15 min at 4° C. After withdrawal of the supernatant, the membrane pellet was stored at −80° C.
(§4) Receptor autoradiography was performed on 20 μm thick cryostat sections of the membrane pellets, mounted on microscope slides, and then stored at −20° C. […] Increasing concentrations of the unlabeled peptide were used ranging from 0.1-1000 nM. […] IC50 values were calculated after quantification of the data using a computer-assisted image processing system as known in this art.
(§5) The numbers in parentheses indicate the number of times the particular binding test was carried out.
(§6) Receptor autoradiography. Cell membrane pellets were prepared as previously described, and stored at −80° C. Receptor autoradiography was performed on 20-μm thick cryostat (Microm HM 500, Walldorf, Germany) sections of the membrane pellets, mounted on microscope slides, and then stored at −20° C. […] After a brief dip in distilled water to remove excess salts, the sections were dried quickly and exposed for 1 week to Kodak BioMax MR film. IC50 values were calculated after quantification of the data using a computer-assisted image processing system as described previously. […] (Reubi, J. C. “In vitro identification of vasoactive intestinal peptide receptors in human tumors: Implications for tumor imaging.” J. Nucl. Med. 1995, 36, 1846-1853).
(§7) To investigate their ssts binding properties, the peptides were tested for their ability to bind to cryostat sections from membrane pellets of cells expressing the five human ssts (Table 3).

[2] = molecular target: T2, hSSTR5 (Homo sapiens, UniProt P35346); details: Table 3; mean ± SEM when N ≧ 3; read-out: sst5 binding affinity (IC50)
T2 construct: expressed in transfected cells; host or cells: CHO-K1 or CCL39 cells
T2 sequence (P35346 whole entry): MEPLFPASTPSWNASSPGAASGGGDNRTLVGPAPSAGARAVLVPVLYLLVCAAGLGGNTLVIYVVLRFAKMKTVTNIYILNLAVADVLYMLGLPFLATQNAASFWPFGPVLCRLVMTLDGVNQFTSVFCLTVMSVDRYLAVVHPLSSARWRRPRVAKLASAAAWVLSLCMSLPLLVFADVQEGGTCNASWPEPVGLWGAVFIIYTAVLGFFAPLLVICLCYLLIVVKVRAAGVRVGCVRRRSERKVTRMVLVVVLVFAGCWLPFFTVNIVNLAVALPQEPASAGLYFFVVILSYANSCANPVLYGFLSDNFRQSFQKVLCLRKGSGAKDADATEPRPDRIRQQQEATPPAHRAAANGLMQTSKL
Experimental: as §1, §2, §3, §4, §5, §6, §7

[3] = molecular target: T3, hSSTR4 (Homo sapiens, UniProt P31391); details: Table 3; mean ± SEM when N ≧ 3; read-out: sst4 binding affinity (IC50)
T3 construct: expressed in transfected cells; host or cells: CHO-K1 or CCL39 cells
T3 sequence (P31391 whole entry): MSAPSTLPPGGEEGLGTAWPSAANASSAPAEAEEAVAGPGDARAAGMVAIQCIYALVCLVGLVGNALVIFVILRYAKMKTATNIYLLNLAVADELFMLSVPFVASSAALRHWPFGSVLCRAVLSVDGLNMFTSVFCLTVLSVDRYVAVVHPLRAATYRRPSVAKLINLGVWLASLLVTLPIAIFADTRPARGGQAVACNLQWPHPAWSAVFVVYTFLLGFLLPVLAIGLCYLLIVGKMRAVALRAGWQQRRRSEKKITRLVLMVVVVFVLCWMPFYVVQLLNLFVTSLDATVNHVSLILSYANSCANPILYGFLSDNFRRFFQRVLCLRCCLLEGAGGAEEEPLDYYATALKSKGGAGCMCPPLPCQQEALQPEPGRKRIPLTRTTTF
Experimental: as §1, §2, §3, §4, §5, §6, §7

[4] = molecular target: T4, hSSTR2 (Homo sapiens, UniProt P30874); details: for IC50: Table 3, mean ± SEM when N ≧ 3, read-out: sst2 binding affinity (IC50)
T4 construct: expressed in transfected cells; host or cells: CHO-K1 or CCL39 cells
T4 sequence (P30874 whole entry): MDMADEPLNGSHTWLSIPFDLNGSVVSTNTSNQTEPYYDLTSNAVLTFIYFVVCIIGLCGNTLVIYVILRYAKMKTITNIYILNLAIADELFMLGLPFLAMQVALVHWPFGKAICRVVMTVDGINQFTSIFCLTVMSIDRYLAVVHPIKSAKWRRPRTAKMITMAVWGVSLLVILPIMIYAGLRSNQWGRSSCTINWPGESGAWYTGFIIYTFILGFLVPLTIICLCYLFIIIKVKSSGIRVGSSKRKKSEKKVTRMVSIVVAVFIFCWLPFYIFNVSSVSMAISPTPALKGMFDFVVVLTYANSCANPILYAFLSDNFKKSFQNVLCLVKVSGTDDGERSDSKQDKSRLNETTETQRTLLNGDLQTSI
Experimental: as §1, §2, §3, §4, §5, §6, §7

[5] = molecular target: T5, hSSTR3 (Homo sapiens, UniProt P32745); details: Table 3; mean ± SEM when N ≧ 3; read-out: sst3 binding affinity (IC50)
T5 construct: expressed in transfected cells; host or cells: CHO-K1 or CCL39 cells
T5 sequence (P32745 whole entry): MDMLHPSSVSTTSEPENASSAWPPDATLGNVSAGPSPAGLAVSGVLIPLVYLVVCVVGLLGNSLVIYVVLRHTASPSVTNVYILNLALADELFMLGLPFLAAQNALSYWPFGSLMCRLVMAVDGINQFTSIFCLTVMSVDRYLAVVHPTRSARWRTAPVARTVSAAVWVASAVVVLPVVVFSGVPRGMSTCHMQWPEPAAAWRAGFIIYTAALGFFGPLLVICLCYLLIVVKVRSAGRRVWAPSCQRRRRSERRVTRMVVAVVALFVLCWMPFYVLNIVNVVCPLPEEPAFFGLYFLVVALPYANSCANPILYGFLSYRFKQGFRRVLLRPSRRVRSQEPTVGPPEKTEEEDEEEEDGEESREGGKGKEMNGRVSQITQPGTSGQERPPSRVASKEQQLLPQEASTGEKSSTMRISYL
Experimental: as §1, §2, §3, §4, §5, §6, §7

Compound	IC50 [1] [nM]	IC50 [2] [nM]	IC50 [3] [nM]	IC50 [4] [nM]	IC50 [5] [nM]	loss of binding affinity for sst2 as compared to 7 [4] [fold]
CONC(=O)Nc1ccc(C[C@@H]2NC(=O)[C@H](NC(=O)[C@@H](N)Cc3ccc(Cl)cc3)CSSC[C@@H](C(=O)N[C@@H](Cc3ccc4ccccc4c3)C(N)=O)NC(=O)[C@H]([C@@H](C)O)NC(=O)[C@H](CCCCN)NC(=O)[C@@H](Cc3c[nH]c4ccccc34)NC2=O)cc1 [compound 23, H2N-Cpa-c[DCys-Aph(CONH—OCH3)-DTrp-Lys-Thr-Cys]-2Nal-NH2]	> 1000	313 ± 35	883 ± 174	9.3 ± 0.9	157 ± 49	–
C[C@@H](O)[C@@H]1NC(=O)[C@H](CCCCN)NC(=O)[C@@H](Cc2ccc(NC(N)=O)cc2)NC(=O)[C@H](Cc2ccc(NC(=O)C3CC(=O)NC(=O)N3)cc2)NC(=O)[C@H](NC(=O)[C@@H](N)Cc2ccc([N+](=O)[O-])cc2)CSSC[C@@H](C(=O)N[C@@H](Cc2ccc3ccccc3c2)C(N)=O)NC1=O (stereo partly drawn) [compound 6, H2N-pNO2Phe-c[DCys-Aph(Hor)-DAph(Cbm)-Lys-Thr-Cys]-2Nal-NH2] (H-[Phe(4-NO2)][dC][Phe(4-NH2)](ξDihydroorotoyl)[dPhe(4-NHCONH2)]KTC[2Nal]-NH2; disulfide 2-7)	> 1000	> 1000	> 1000	–	–	–
C[C@@H](O)[C@@H]1NC(=O)[C@H](CCCCN)NC(=O)[C@@H](Cc2c[nH]c3ccccc23)NC(=O)[C@H](Cc2ccc(NC(N)=O)cc2)NC(=O)[C@H](NC(=O)[C@@H](N)Cc2ccc(Cl)cc2)CSSC[C@@H](C(=O)N[C@@H](Cc2ccc(NC(N)=O)cc2)C(N)=O)NC1=O [compound 21, H2N-Cpa-c[DCys-Aph(Cbm)-DTrp-Lys-Thr-Cys]-Aph(Cbm)-NH2]	> 1000	560 ± 144	551 ± 151	15	336 ± 46	–
CC(C)C[C@@H]1NC(=O)[C@H](NC(=O)[C@@H](N)Cc2ccc(Cl)cc2)CSSC[C@@H](C(=O)N[C@@H](Cc2ccc3ccccc3c2)C(N)=O)NC(=O)[C@H]([C@@H](C)O)NC(=O)[C@H](CCCCN)NC(=O)[C@@H](Cc2c[nH]c3ccccc23)NC1=O [compound 11, H2N-Cpa-c[DCys-Leu-DTrp-Lys-Thr-Cys]-2Nal-NH2] (H-[Phe(4-Cl)][dC]L[dW]KTC[2Nal]-NH2; disulfide 2-7)	> 1000	657 ± 299	908 ± 138	58 ± 21	340 ± 77	10
C[C@@H](O)[C@@H]1NC(=O)[C@H](CCCCN)NC(=O)[C@@H](Cc2c[nH]c3ccccc23)NC(=O)[C@H](Cc2ccc(NC(N)=O)cc2)NC(=O)[C@H](NC(=O)[C@@H](N)Cc2ccc(Cl)cc2)CSSC[C@@H](C(=O)N[C@@H](CC2CCCCC2)C(N)=O)NC1=O [compound 18, H2N-Cpa-c[DCys-Aph(Cbm)-DTrp-Lys-Thr-Cys]-Cha-NH2]	> 1000	247 ± 66	> 1000	4.1 ± 0.9	255 ± 79	–
C[C@@H](O)[C@@H]1NC(=O)[C@H](CCCCN)NC(=O)[C@H](Cc2c[nH]c3ccc(F)cc23)NC(=O)[C@H](Cc2ccc(NC(N)=O)cc2)NC(=O)[C@H](NC(=O)[C@@H](N)Cc2ccc(Cl)cc2)CSSC[C@@H](C(=O)N[C@@H](Cc2ccc3ccccc3c2)C(N)=O)NC1=O [compound 26, H2N-Cpa-c[DCys-Aph(Cbm)-5F-Trp-Lys-Thr-Cys]-2Nal-NH2] (H-[Phe(4-Cl)][dC][Phe(4-NHCONH2)][Trp(5-F)]KTC[2Nal]-NH2; disulfide 2-7)	> 1000	618 ± 248	905 ± 132	23 ± 3.7	90 ± 11	–
C[C@@H](O)[C@@H]1NC(=O)[C@H](CCCCN)NC(=O)[C@@H](Cc2c[nH]c3ccccc23)NC(=O)[C@H](Cc2ccc(NC(=O)NO)cc2)NC(=O)[C@H](NC(=O)[C@@H](N)Cc2ccc(Cl)cc2)CSSC[C@@H](C(=O)N[C@@H](Cc2ccc3ccccc3c2)C(N)=O)NC1=O [compound 24, H2N-Cpa-c[DCys-Aph(CONH—OH)-DTrp-Lys-Thr-Cys]-2Nal-NH2]	> 1000	426 ± 189	813 ± 152	9.3 ± 1.4	120 ± 45	–

— patent US8691761B2, “Somatostatin receptor 2 antagonists” (priority 2006, dated 2014)
